According to patent US20120009164A1, “Increasing Probiotic Growth Rate and Activity Using Prebiotic Composition” (MASTER SUPPLEMENTS, INC., priority 2010, published 2012):

How the values were obtained:
[1] = tested on: Lactobacillus paracasei Lpc-37 (F-19); assay: Growth (turbidity) and lactic acid producing activity in MRS broth, L. paracasei Lpc-37; assay type: cell-based; details: for Lactic Acid % / NTU (Turbidity) / pH: additive 0.1% in MRS (polysorbate 80 control: 1.0 g per liter)
Description: (§1) Prebiotic formulations are often probiotic strain dependent. Some Lactobacillus strains, for example, respond best to a form of lecithin derived from sunflowers (Sunflower Lecithin) while others show no preference to lecithin type and respond equally well to soy lecithin. Other strains show a synergistic response when lecithin is used together with oleic acid. […] Each flask was tempered to 37° C. and aseptically inoculated with 0.14 gm of the individual probiotic strains (in Examples 5 to 10 below) to be tested. At specified time intervals, a 30 ml sample from each flask was aseptically transferred into a HACH […] Turbidimeter sample cell. The turbidity of each sample was read and the results were reported in NTU's. The same 30 ml sample used for the turbidity reading was transferred into a 250 ml glass beaker, and the pH was recorded. The sample was titrated using 0.1N NaOH to an endpoint of pH 6.8, and the quantity of NaOH used was recorded. The % Lactic Acid was calculated using the following formula: % Lactic Acid=((mls of 0.1N NaOH)×(0.1N)×(90 gm/mole)×(1 L/1000 ml))×100 mls of sample % Lactic Acid=(mls of 0.1N NaOH)×(0.9) (Results reported at 12 hours and 23 hours like: 12/23 in Table III below)

[2] = tested on: Lactobacillus salivarius Ls-33 (LS-30); assay: Growth (turbidity) and lactic acid producing activity in MRS broth, L. salivarius Ls-33; assay type: cell-based; details: for Lactic Acid % / NTU (Turbidity) / pH: additive 0.1% in MRS (polysorbate 80 control: 1.0 g per liter)
Description: as §1, with “V” for “III”

[3] = tested on: L. acidophilus NCFM (LA-1); assay: Growth (turbidity) and lactic acid producing activity in MRS broth, L. acidophilus NCFM; assay type: cell-based, Lactobacillus acidophilus
Description: Prebiotic formulations are often probiotic strain dependent. […] At specified time intervals, a 30 ml sample from each flask was aseptically transferred into a HACH […] Turbidimeter sample cell. The turbidity of each sample was read and the results were reported in NTU's. The same 30 ml sample used for the turbidity reading was transferred into a 250 ml glass beaker, and the pH was recorded. The sample was titrated using 0.1N NaOH to an endpoint of pH 6.8, and the quantity of NaOH used was recorded. The % Lactic Acid was calculated using the following formula: % Lactic Acid=((mls of 0.1N NaOH)×(0.1N)×(90 gm/mole)×(1 L/1000 ml))×100 mls of sample % Lactic Acid=(mls of 0.1N NaOH)×(0.9) (Results reported at 12 hours and 23 hours like: 12/23 in Table I below)

[4] = tested on: THERALAC® Lot # 32310A probiotic strains; assay: Growth of the commercial probiotic Theralac in MRS broth (Example 10); assay type: cell-based, Lactobacillus and Bifidobacterium strains; details: for Lactic Acid % / pH / NTU (Turbidity): additive 0.1% in MRS (polysorbate 80 control: 1.0 g per liter); for NTU (Turbidity): inoculated at 0.1% with THERALAC
Description: MRS broth was prepared with (for controls) and without (for tests) polysorbate 80 and filled into 1 liter screw cap flasks at 500 ml each and autoclaved at 121° C. for 30 minutes. Various lecithin and/or oleic acid additives, or nothing (negative control), was added to the tests flasks prior to autoclaving. The flasks were then tempered to 37° C. in a water bath and inoculated at 0.1% with […]® Lot # 32310A, a commercial probiotic product (Master Supplements, Inc., Victoria, Minn.). Capsules of […]® were opened and the contents mixed aseptically to serve as the inoculum source. At an inoculation rate of 0.1%, approximately 80 million CFU was added per ml of MRS media. […]® contains (formulation strength) the following probiotic strains at the approximate CFU values listed per gram: Lactobacillus acidophilus NCFM (LA-1): 30 billion CFU Bifidobacterium lactis Bl-04 (BL-34): 30 billion CFU Lactobacillus paracasei Lpc-37 (F-19): 14 billion CFU Lactobacillus rhamnosus Lr-32 (LR-44): 6 billion CFU Bifidobacterium lactis Bi-07: 8 billion CFU Turbidity, pH and titrations (made with 0.1 N NaOH and reported as % lactic acid) were made at various times up to 23 hours. The results are presented below in Table VI for the 12 and 23-hour analyses.

[5] = tested on: Lactobacillus rhamnosus Lr-32 (LR-44); assay: Growth (turbidity) and lactic acid producing activity in MRS broth, L. rhamnosus Lr-32; assay type: cell-based; details: for Lactic Acid % / NTU (Turbidity) / pH: additive 0.1% in MRS (polysorbate 80 control: 1.0 g per liter)
Description: as §1, with “IV” for “III”

[6] = tested on: Bifidobacterium lactis Bl-04 (BL-34); assay: Growth (turbidity) and lactic acid producing activity in MRS broth, B. lactis Bl-04; assay type: cell-based; details: additive 0.1% in MRS (polysorbate 80 control: 1.0 g per liter)
Description: as §1, with “II” for “III”

[7] = at the concentrations studied (0.1% + 0.1%)
[8] = additive 0.025% in MRS, 12 hours
[9] = additive 0.025% in MRS, 23 hours
[10] = additive 0.1% in MRS (polysorbate 80 control: 1.0 g per liter), 37° C., 12 hours
[11] = additive 0.1% in MRS (polysorbate 80 control: 1.0 g per liter), 37° C., 23 hours
[12] = additive 0.1% in MRS (polysorbate 80 control: 1.0 g per liter), 12 hours
[13] = additive 0.1% in MRS (polysorbate 80 control: 1.0 g per liter), 23 hours

With CCCCCCCC/C=C\CCCCCCCC(=O)O [Oleic Acid, oleic acid] the “effectiveness as polysorbate 80 replacement (conclusion)” value (shortened to “effectiveness”) ([1]; 0.1% inclusion rate in MRS) was “not as effective a replacement for polysorbate 80 as sunflower lecithin”, the “Lactic Acid %” value ([1]; 12 hours) was 0.33% and the “NTU (Turbidity)” value ([1]; 12 hours) was 178 NTU. For the same compound, the pH ([1]; 12 hours) was 5.1, the “Lactic Acid %” value ([1]; 23 hours) was 1.01% and the “NTU (Turbidity)” value ([1]; 23 hours) was 1789 NTU. The pH ([1]; 23 hours) was 4.1, the “synergy of oleic acid with sunflower lecithin (conclusion)” value [1, 7] was “does not appear to be synergistic” and the lag phase ([2]; 0.1% in MRS, at 12 hours) was “a lag phase is apparent”. The “effectiveness” value ([2]; 0.1% inclusion rate in MRS) was “not as good a replacement”, the “Lactic Acid %” value ([2]; 12 hours) was 0.073% and the “NTU (Turbidity)” value ([2]; 12 hours) was 1440 NTU. For the same compound, the pH ([2]; 12 hours) was 4.4, the “Lactic Acid %” value ([2]; 23 hours) was 1.51% and the “NTU (Turbidity)” value ([2]; 23 hours) was 3578 NTU. The pH ([2]; 23 hours) was 3.8, the “effectiveness” value ([3]; 0.1% inclusion rate in MRS) was “somewhat effective” and the “Lactic Acid %” value [3, 8] was 0.70%. For the same compound, the pH [3, 8] was 4.5, the “Lactic Acid %” value [3, 9] was 0.77% and the “NTU (Turbidity)” value [3, 9] was 603 NTU. The pH [3, 9] was 4.4, the “NTU (Turbidity)” value [3, 10] was 1451 NTU and the “NTU (Turbidity)” value [3, 11] was 1789 NTU. For the same compound, the “Lactic Acid %” value [3, 12] was 1.03%, the pH [3, 12] was 4.3 and the “Lactic Acid %” value [3, 13] was 1.21%. For the same compound, the pH [3, 13] was 4.1, the “effectiveness” value ([4]; 0.1% inclusion rate in MRS) was “acceptable replacement value” and the “Lactic Acid %” value ([4]; 12 hours) was 1.18%. The pH ([4]; 12 hours) was 4.1, the “Lactic Acid %” value ([4]; 23 hours) was 1.72% and the pH ([4]; 23 hours) was 3.8. For the same compound, the “NTU (Turbidity)” value ([4]; 12 hours) was 2775 NTU, the “NTU (Turbidity)” value ([4]; 23 hours) was 3529 NTU and the lag phase ([5]; 0.1% in MRS, at 12 hours) was “significant lag phase”. For the same compound, the “effectiveness” value ([5]; 0.1% inclusion rate in MRS) was “not as good a replacement for polysorbate 80 as sunflower lecithin”, the “Lactic Acid %” value ([5]; 12 hours) was 0.072% and the “NTU (Turbidity)” value ([5]; 12 hours) was −30.9 NTU. The pH ([5]; 12 hours) was 6.2, the “Lactic Acid %” value ([5]; 23 hours) was 1.05% and the “NTU (Turbidity)” value ([5]; 23 hours) was 2644 NTU. For the same compound, the pH ([5]; 23 hours) was 4.1 and the “synergy of oleic acid with sunflower lecithin (conclusion)” value [5, 7] was “not synergistic”.
In the case of polysorbate 80 [reference compound], the “Lactic Acid %” value ([1]; 12 hours) is reported as 0.99%, the “NTU (Turbidity)” value ([1]; 12 hours) is reported as 1664 NTU and the pH ([1]; 12 hours) is reported as 4.2. The “Lactic Acid %” value ([1]; 23 hours) was 1.39%, the “NTU (Turbidity)” value ([1]; 23 hours) was 2824 NTU and the pH ([1]; 23 hours) was 3.9. For the same compound, the “Lactic Acid %” value ([2]; 12 hours) was 1.42%, the “NTU (Turbidity)” value ([2]; 12 hours) was 3426 NTU and the pH ([2]; 12 hours) was 3.8. The “Lactic Acid %” value ([2]; 23 hours) was 1.68%, the “NTU (Turbidity)” value ([2]; 23 hours) was 3931 NTU and the pH ([2]; 23 hours) was 3.7. For the same compound, the “NTU (Turbidity)” value [3, 10] was 1855 NTU, the “NTU (Turbidity)” value [3, 11] was 2038 NTU and the “Lactic Acid %” value [3, 12] was 1.09%. The pH [3, 12] was 4.2, the “Lactic Acid %” value [3, 13] was 1.27% and the pH [3, 13] was 4.1. The “Lactic Acid %” value ([6]; 12 hours) was 0.57%, the “NTU (Turbidity)” value ([6]; 12 hours) was 922 NTU and the pH ([6]; 12 hours) was 4.8. The “Lactic Acid %” value ([6]; 23 hours) was 0.84%, the “NTU (Turbidity)” value ([6]; 23 hours) was 1434 NTU and the pH ([6]; 23 hours) was 4.5. For the same compound, the “Lactic Acid %” value ([4]; 12 hours) was 1.42%, the pH ([4]; 12 hours) was 3.9 and the “Lactic Acid %” value ([4]; 23 hours) was 1.84%. The pH ([4]; 23 hours) was 3.7, the “NTU (Turbidity)” value ([4]; 12 hours) was 3311 NTU and the “NTU (Turbidity)” value ([4]; 23 hours) was 3694 NTU. The “Lactic Acid %” value ([5]; 12 hours) was 1.12%, the “NTU (Turbidity)” value ([5]; 12 hours) was 2804 NTU and the pH ([5]; 12 hours) was 4.0. The “Lactic Acid %” value ([5]; 23 hours) was 1.67%, the “NTU (Turbidity)” value ([5]; 23 hours) was 3776 NTU and the pH ([5]; 23 hours) was 3.7.
